The test has as its target T1, ClPPase (membrane-bound pyrophosphatase from Clostridium leptum) ([Clostridium] leptum, UniProt A7VNH8).
T1 construct: gene hppA; N-terminal 8xHis-tag, superfolder GFP and TEV site kept; synthetic gene in pDDGFP; expressed in S. cerevisiae FGY217 membranes; about 700 residues; dimer
T1 sequence (A7VNH8 1-700): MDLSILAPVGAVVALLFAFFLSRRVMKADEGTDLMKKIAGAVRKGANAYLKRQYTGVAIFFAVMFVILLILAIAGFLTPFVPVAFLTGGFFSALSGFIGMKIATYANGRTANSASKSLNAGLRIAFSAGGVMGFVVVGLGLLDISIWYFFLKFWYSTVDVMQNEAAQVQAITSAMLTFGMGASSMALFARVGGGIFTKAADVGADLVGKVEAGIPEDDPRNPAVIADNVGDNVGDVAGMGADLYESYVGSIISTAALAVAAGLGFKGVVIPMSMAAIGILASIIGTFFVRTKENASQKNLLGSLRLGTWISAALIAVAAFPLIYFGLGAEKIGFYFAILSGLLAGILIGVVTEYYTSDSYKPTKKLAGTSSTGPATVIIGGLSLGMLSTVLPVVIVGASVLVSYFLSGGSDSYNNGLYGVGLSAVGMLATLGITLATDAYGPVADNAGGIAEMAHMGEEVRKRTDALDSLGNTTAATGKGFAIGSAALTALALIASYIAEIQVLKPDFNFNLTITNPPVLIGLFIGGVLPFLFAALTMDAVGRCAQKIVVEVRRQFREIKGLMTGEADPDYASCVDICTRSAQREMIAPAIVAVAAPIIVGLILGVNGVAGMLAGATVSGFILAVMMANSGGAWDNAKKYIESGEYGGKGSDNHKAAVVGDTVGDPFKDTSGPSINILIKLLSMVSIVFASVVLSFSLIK
Briefly: colorimetric phosphate release assay on yeast membranes. The conditions noted are these: tris-HCl pH 8, MgCl2, KCl, NaCl, NaF, gramicidin, 10 uL of 2 mM tetrabasic sodium pyrophosphate in 50 uL, 30 C, 10 min. The format is biochemical.

Take `O=P(O)(O)OP(=O)(O)O` [PPi]: the “colorimetric phosphate release assay on yeast membranes” value is “The hydrolytic activity of wild-type and variant ClPPase in the membrane was assessed”.

For the origin of these results see article PMC7495477, “IMPROvER: the Integral Membrane Protein Stability Selector” (Scientific Reports, 2020).
